# Like-named read-outs stand apart in the source and are kept apart here.
# Tests used:
# [1] = tested on: Mycobacterium tuberculosis CNCTC My 331/88 (identical with H37Rv and ATCC 2794; MTv H37Rv); assay: in vitro antimycobacterial MIC, dilution micromethod in Šula's semisynthetic medium; type: cell-based; conditions: Mycobacterium tuberculosis
# [2] = tested on: M. kansasii CNCTC My 235/80 (identical with ATCC 12478; MK 235/80); assay: as above; type: cell-based, Mycobacterium kansasii; conditions: Mycobacterium kansasii
# [3] = tested on: M. kansasii DSM 44162 (MK DSM); assay: in vitro antimycobacterial MIC, broth dilution micromethod in Middlebrook 7H9; type: cell-based; conditions: Mycobacterium kansasii, DSM 44162 / DSM 7, 168 h
# [4] = tested on: M. avium CNCTC My 330/80 (identical with ATCC 25291; MA 330/80); assay: in vitro antimycobacterial MIC, dilution micromethod in Šula's semisynthetic medium; type: cell-based, Mycobacterium avium; conditions: Mycobacterium avium
# [5] = tested on: M. smegmatis ATCC 700084 (MS); assay: in vitro antimycobacterial MIC, broth dilution micromethod in Middlebrook 7H9; type: cell-based, Mycobacterium smegmatis; conditions: Mycolicibacterium smegmatis, ATCC700084, 72 h
# [6] = tested on: M. marinum CAMP 5644 (MM); assay: as above; type: cell-based, Mycobacterium marinum; conditions: Mycobacterium marinum, 504 h
# [7] = surface tension, drop count method, Traube stalagmometer; type: physicochemical; conditions: aqueous solution c = 2.0 × 10^−3 M, 21 °C; water γ = 0.07259 N/m
# Method: Surface tension (relative surface activity; γ) of aqueous solutions of the compounds 1a–p (c = 2.0 × 10^−3 M) was determined by a drop count technique using a Traube stalagmometer. All evaluated substances were able to decrease surface tension of water (γ = 0.07259 N/m) at 21 °C.
# Surface tension (relative surface activity; γ) of the derivatives 1a–p was determined by a drop count method using a glassy Traube stalagmometer (Kavalier Glass, Prague, Czech Republic). Number of drops of compounds’ and reference solutions were counted between upper and lower marks of the stalagmometer. Aqueous solutions of the molecules 1a–p were prepared with distilled, deionized water (c = 2.0 × 10^−3 M). […] The drops were allowed to form at constant temperature 21 °C. The experimental procedure was described in a paper. Current measurements were done in six replicates and average γ values (in N/m units) were reported (Table 1).
# [8] = lipophilicity by isocratic RP-HPLC (log k, k, log kw, S); type: physicochemical; conditions: for log kw: extrapolated to 100% water from log k versus ϕM; for S (slope): slope of log k versus ϕM regression
# Text: Octadecyl-functionalized silica gel was currently used as a stationary phase (SPh) and a […] of two solvents at different volume ratios modified retention properties of the SPh. Liquid binary mixtures of methanol (MeOH) with water were employed as mobile phases (MPhs) in the isocratic RP-HPLC. The MeOH modifier was preferred because of similarity of both observed and extrapolated lipophilicity parameters with the ones determined in the octan-1-ol/water partition system, considering also sensitivity to H-bond donor properties of investigated compounds [41].
# The modifier was applied in different volume concentrations, which varied from […] (v/v) with 5% increments. This interval was chosen due to very high lipophilicity of investigated salts. Practically, lower volume concentration of MeOH, i.e., less than 85% (v/v) in used MPhs, caused uncertainty of retention times (tr) due to notable peaks broadening, especially within subsets 1i–l and 1m–p. […] The highest tr parameters were found for the molecules 1k (tr = 47.108 min) and 1l (tr = 70.012 min) in the MPh containing 85% proportion (v/v) of MeOH (Table 2).
# According to the authors’ opinions based on systematic scientific literature survey, a current research paper was the first, which aimed the log kw parameters of 2-/3-alkoxyphenylcarbamic acid derivatives containing two centers of protonation. The log kw values were extrapolated from intercepts of a relationship between log k and volume fraction of the MPh modifier (ϕM) using the Snyder–Soczewiński linear solvent strength model. The relationship was justified by R > 0.9900, Adj. R^2 > 0.9750 as well as F > 180.00 for calculation of particular log kw parameters (Table 3).
# The HPLC separation module Waters e2695 equipped with a Waters 2996 PDA Detector (Waters Corp., Milford, MA, USA) and chromatographic column Symmetry C18 × 5 μm, 4.6 × 250 mm, Part No. W21751W016 (Waters Corp.) were used for estimation of lipophilic properties of the compounds 1a–p at 21 °C.
# Isocratic elution was carried out using mobile phases consisting of methanol p.a. (MeOH; Honeywell, Paris, France) and purified water in various volume ratios (80:20, 85:15, 90:10, 95:5 (v/v) and pure MeOH, respectively). Distilled water (CentralChem, Bratislava, Slovak Republic) was purified by the Aquinity2 P10 ultra-pure water system for production of ultra-pure water with an integrated 10 L permeate tank (membraPure, Hennigsdorf, Germany).
# Total flow of the column was 1.0 mL/min, injection volume was 4 μL and column temperature was set to 40 °C. The detection wavelengths varying from 236 nm to 238 nm were chosen for current experimental procedures.
# Lipophilicity of the compounds 1a–p was determined by reversed-phase high-performance liquid chromatography (RP-HPLC). Methanol (MeOH)/water mobile phases with varying volume ratio of the organic modifier and water (80:20, 85:15, 90:10, 95:5 (v/v) and pure MeOH, respectively) were chosen.
# A methanolic solution of potassium iodine was used for dead time (td) determination. Retention factors (capacity factors; k) were calculated according to Equation (17):k = (tr− td)/td(17) where tr was retention time of a solute (in min), the td parameter denoted dead time of potassium iodine, an unretained analyte (in min).
# The observed retention (tr) and dead (td) times were means of three independent determinations. Average td values of potassium iodine in used MPhs were as follows: 2.237 min (MeOH/water ratio (v/v) was 80:20), 2.245 min (85:15), 2.245 min (90:10), 2.228 min (95:5) and 2.210 min (pure MeOH), respectively. […]
# [9] = 336 h, 14-day cultivation, read-out: MIC MTv H37Rv 14-d
# [10] = 504 h, 21-day cultivation, read-out: MIC MTv H37Rv 21-d
# [11] = ATCC12478, 168 h, 7-day cultivation, read-out: MIC MK 235/80 7-d
# [12] = ATCC12478, 336 h, 14-day cultivation, read-out: MIC MK 235/80 14-d
# [13] = ATCC12478, 504 h, 21-day cultivation, read-out: MIC MK 235/80 21-d
# [14] = 7-day cultivation, 37 °C, read-out: MIC MK DSM 7-d
# [15] = ATCC25291, 336 h, 14-day cultivation, read-out: MIC MA 330/80 14-d
# [16] = ATCC25291, 504 h, 21-day cultivation, read-out: MIC MA 330/80 21-d
# [17] = 3-day cultivation, 37 °C, read-out: MIC MS 3-d
# [18] = 21-day cultivation, 28 °C, read-out: MIC MM 21-d
# [19] = mobile phase MeOH/water 80:20 (v/v)
# [20] = mobile phase MeOH/water 85:15 (v/v)
# [21] = mobile phase MeOH/water 90:10 (v/v)
# [22] = mobile phase MeOH/water 95:5 (v/v)
# [23] = read-out: MIC MS 3-d, 3-day cultivation, 37 °C
Compound,"MIC [1, 9]","MIC [1, 10]","MIC [2, 11]","MIC [2, 12]","MIC [2, 13]","MIC [3, 14]","MIC [4, 15]",surface tension γ (relative surface activity) [7],log kw [8],"k (retention factor) [8, 19]","log k [8, 19]","k (retention factor) [8, 20]","log k [8, 20]","k (retention factor) [8, 21]","log k [8, 21]","k (retention factor) [8, 22]","log k [8, 22]",k (retention factor) ([8]; mobile phase pure MeOH),log k ([8]; mobile phase pure MeOH),S (slope) [8],also measured
CCCCCCOc1ccccc1NC(=O)OC(CN(CCC)CCC)CN1CCCCCC1 (stereo not drawn) [1k],8 µM,16 µM,16 µM,32 µM,62.5 µM,98 µM,32 µM,0.06065 N/m,5.2359,20.0586,1.3023,11.0255,1.0424,6.3650,0.8038,3.3274,0.5221,2.1394,0.3303,4.9286,"MIC [4, 16]: 62.5 µM; MIC [5, 17]: 390 µM; MIC [6, 18]: 98 µM"
"CCCCCOc1cccc(NC(=O)OC(CN(CCC)CCC)CN2CCCCCC2)c1.Cl.Cl (stereo not drawn) [1n, 1-[2-[({[3-(pentyloxy)phenyl]amino}carbonyl)oxy]-3-(di-propylammonio)propyl]azepanium dichloride]",4 µM,8 µM,–,–,–,–,–,0.06154 N/m,5.2087,8.9166,0.9502,4.5102,0.6542,2.6333,0.4205,1.2419,0.0941,0.7858,−0.1047,5.3398,"MIC ([2]; ATCC12478, 168 h, read-out: MIC MK 235/80 7-d): 8 µM; MIC ([2]; ATCC12478, 336 h, read-out: MIC MK 235/80 14-d): 8 µM; MIC ([2]; ATCC12478, 504 h, read-out: MIC MK 235/80 21-d): 8 µM; MIC ([2]; ATCC12478, read-out: MIC MK 235/80): 8 µM; MIC ([3]; read-out: MIC MK DSM 7-d, 7-day cultivation, 37 °C): 7.5 µM; MIC ([4]; ATCC25291, 336 h, read-out: MIC MA 330/80 14-d): 16 µM; MIC ([4]; ATCC25291, 504 h, read-out: MIC MA 330/80 21-d): 16 µM; MIC [5, 23]: 15 µM; MIC ([6]; read-out: MIC MM 21-d, 21-day cultivation, 28 °C): 15 µM"
CCCCOc1ccccc1NC(=O)OC(CN(CCC)CCC)CN1CCCCCC1 (stereo not drawn) [1i],16 µM,32 µM,32 µM,62.5 µM,62.5 µM,51 µM,62.5 µM,0.06302 N/m,4.4679,9.7297,0.9881,6.5358,0.8153,4.2073,0.6240,2.4854,0.3954,1.3198,0.1205,4.3102,"MIC [4, 16]: 125 µM; MIC [5, 23]: 203 µM; MIC [6, 18]: 51 µM"
CCCCOc1cccc(NC(=O)OC(CN(CCC)CCC)CN2CCCC2)c1 (stereo not drawn) [1e],16 µM,32 µM,32 µM,32 µM,32 µM,16.2 µM,62.5 µM,0.06316 N/m,4.0258,3.6174,0.5584,2.0811,0.3183,1.4054,0.1478,0.7155,−0.1454,0.5063,−0.2956,4.3434,"MIC [4, 16]: 62.5 µM; MIC [5, 17]: 16.2 µM; MIC [6, 18]: 32.5 µM"

# From paper PMC6222509, “Dibasic Derivatives of Phenylcarbamic Acid against Mycobacterial Strains: Old Drugs and New Tricks?” (Molecules : A Journal of Synthetic Chemistry and Natural …, 2018)
